Experimental data from PubChem BioAssay (NCI).
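Assay format: 96-well plates, 48-hour exposure. TGI: concentration producing complete growth inhibition.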

Legend:
Assay in all cases: NCI tumour cell line growth inhibition, 48 h
EKVX NSCLC = system: EKVX NSCLC
NCI-H23 lung = system: NCI-H23 lung
RPMI-8226 leukemia = system: RPMI-8226 leukemia
SNB-78 CNS = system: SNB-78 CNS
K-562 leukemia = system: K-562 leukemia
SW-620 colon = system: SW-620 colon
UACC-257 melanoma = system: UACC-257 melanoma
IGROV1 ovarian = system: IGROV1 ovarian
OVCAR-3 ovarian = system: OVCAR-3 ovarian
CCRF-CEM leukemia = system: CCRF-CEM leukemia
NCI-H226 lung = system: NCI-H226 lung
LOX IMVI melanoma = system: LOX IMVI melanoma
HCT-116 colon = system: HCT-116 colon
KM12 colon = system: KM12 colon
SNB-19 CNS = system: SNB-19 CNS
HOP-92 NSCLC = system: HOP-92 NSCLC
HT29 colon = system: HT29 colon
LXFL 529 NSCLC = system: LXFL 529 NSCLC
MOLT-4 leukemia = system: MOLT-4 leukemia
A549 NSCLC = system: A549 NSCLC
SF-295 CNS = system: SF-295 CNS
786-0 renal = system: 786-0 renal
SK-MEL-28 melanoma = system: SK-MEL-28 melanoma
RXF 393 renal = system: RXF 393 renal
OVCAR-5 ovarian = system: OVCAR-5 ovarian
DMS 114 small cell lung = system: DMS 114 small cell lung
HCT-15 colon = system: HCT-15 colon
SNB-75 CNS = system: SNB-75 CNS
COLO 205 colon = system: COLO 205 colon
TK-10 renal = system: TK-10 renal
U251 CNS = system: U251 CNS
OVCAR-8 ovarian = system: OVCAR-8 ovarian
HOP-62 NSCLC = system: HOP-62 NSCLC
UO-31 renal = system: UO-31 renal
UACC-62 melanoma = system: UACC-62 melanoma
M14 melanoma = system: M14 melanoma
A498 renal = system: A498 renal
CAKI-1 renal = system: CAKI-1 renal
ACHN renal = system: ACHN renal
NCI-H460 lung = system: NCI-H460 lung
SR leukemia = system: SR leukemia
XF 498 CNS = system: XF 498 CNS
SN12C renal = system: SN12C renal
M19-MEL melanoma = system: M19-MEL melanoma
KM20L2 colon = system: KM20L2 colon
HOP-18 NSCLC = system: HOP-18 NSCLC
HCC-2998 colon = system: HCC-2998 colon
HL-60(TB) leukemia = system: HL-60(TB) leukemia
OVCAR-4 ovarian = system: OVCAR-4 ovarian
SF-268 CNS = system: SF-268 CNS
SF-539 CNS = system: SF-539 CNS
MALME-3M melanoma = system: MALME-3M melanoma
NCI-H522 lung = system: NCI-H522 lung
SK-OV-3 ovarian = system: SK-OV-3 ovarian
RXF-631 renal = system: RXF-631 renal
DMS 273 small cell lung = system: DMS 273 small cell lung
DLD-1 colon = system: DLD-1 colon
SK-MEL-5 melanoma = system: SK-MEL-5 melanoma
SK-MEL-2 melanoma = system: SK-MEL-2 melanoma

Compound: CC[C@@H]1C[C@@H]2CN3CCc4c([nH]c5ccc(OC)cc45)C(COC(=O)c4ccc(OC)c(OC)c4)(C2)C13
- TGI (EKVX NSCLC): > 100 µM
- TGI (NCI-H23 lung): 38.8 µM
- TGI (RPMI-8226 leukemia): 86.4 µM
- TGI (SNB-78 CNS): > 100 µM
- TGI (K-562 leukemia): 43 µM
- TGI (SW-620 colon): 40.1 µM
- TGI (UACC-257 melanoma): 37.8 µM
- TGI (IGROV1 ovarian): 74.5 µM
- TGI (OVCAR-3 ovarian): > 100 µM
- TGI (CCRF-CEM leukemia): 95.7 µM
- TGI (NCI-H226 lung): 33.8 µM
- TGI (LOX IMVI melanoma): 27.6 µM
- TGI (HCT-116 colon): 44 µM
- TGI (KM12 colon): > 100 µM
- TGI (SNB-19 CNS): > 100 µM
- TGI (HOP-92 NSCLC): 32.2 µM
- TGI (HT29 colon): 39.2 µM
- TGI (LXFL 529 NSCLC): 35.1 µM
- TGI (MOLT-4 leukemia): 62.3 µM
- TGI (A549 NSCLC): > 100 µM
- TGI (SF-295 CNS): 70.6 µM
- TGI (786-0 renal): > 100 µM
- TGI (SK-MEL-28 melanoma): > 100 µM
- TGI (RXF 393 renal): 62.6 µM
- TGI (OVCAR-5 ovarian): > 100 µM
- TGI (DMS 114 small cell lung): 71.8 µM
- TGI (HCT-15 colon): > 100 µM
- TGI (SNB-75 CNS): > 100 µM
- TGI (COLO 205 colon): > 100 µM
- TGI (TK-10 renal): 97.2 µM
- TGI (U251 CNS): 43.6 µM
- TGI (OVCAR-8 ovarian): > 100 µM
- TGI (HOP-62 NSCLC): 93 µM
- TGI (UO-31 renal): 98.8 µM
- TGI (UACC-62 melanoma): 28 µM
- TGI (M14 melanoma): 41.8 µM
- TGI (A498 renal): 61.4 µM
- TGI (CAKI-1 renal): > 100 µM
- TGI (ACHN renal): > 100 µM
- TGI (NCI-H460 lung): 84.1 µM
- TGI (SR leukemia): 78.4 µM
- TGI (XF 498 CNS): 46.1 µM
- TGI (SN12C renal): 39.3 µM
- TGI (M19-MEL melanoma): > 100 µM
- TGI (KM20L2 colon): 74.3 µM
- TGI (HOP-18 NSCLC): > 100 µM
- TGI (HCC-2998 colon): 55.4 µM
- TGI (HL-60(TB) leukemia): 39.2 µM
- TGI (OVCAR-4 ovarian): > 100 µM
- TGI (SF-268 CNS): > 100 µM
- TGI (SF-539 CNS): 55 µM

Compound: O=C1NC(=O)C(C(=O)C(=O)Nc2ccc(Br)cc2)C(=O)N1
- TGI (EKVX NSCLC): > 100 µM
- TGI (NCI-H23 lung): > 100 µM
- TGI (RPMI-8226 leukemia): > 100 µM
- TGI (SNB-78 CNS): > 100 µM
- TGI (K-562 leukemia): > 100 µM
- TGI (SW-620 colon): > 100 µM
- TGI (UACC-257 melanoma): > 100 µM
- TGI (IGROV1 ovarian): > 100 µM
- TGI (OVCAR-3 ovarian): > 100 µM
- TGI (MALME-3M melanoma): > 100 µM
- TGI (CCRF-CEM leukemia): > 100 µM
- TGI (NCI-H226 lung): > 100 µM
- TGI (LOX IMVI melanoma): > 100 µM
- TGI (HCT-116 colon): > 100 µM
- TGI (SNB-19 CNS): > 100 µM
- TGI (HOP-92 NSCLC): > 100 µM
- TGI (HT29 colon): > 100 µM
- TGI (NCI-H522 lung): > 100 µM
- TGI (LXFL 529 NSCLC): > 100 µM
- TGI (MOLT-4 leukemia): > 100 µM
- TGI (A549 NSCLC): > 100 µM
- TGI (SF-295 CNS): > 100 µM
- TGI (786-0 renal): > 100 µM
- TGI (SK-MEL-28 melanoma): > 100 µM
- TGI (SK-OV-3 ovarian): > 100 µM
- TGI (RXF 393 renal): > 100 µM
- TGI (DMS 114 small cell lung): > 100 µM
- TGI (HCT-15 colon): > 100 µM
- TGI (SNB-75 CNS): > 100 µM
- TGI (COLO 205 colon): > 100 µM
- TGI (U251 CNS): > 100 µM
- TGI (OVCAR-8 ovarian): > 100 µM
- TGI (UO-31 renal): > 100 µM
- TGI (RXF-631 renal): > 100 µM
- TGI (UACC-62 melanoma): > 100 µM
- TGI (M14 melanoma): > 100 µM
- TGI (A498 renal): > 100 µM
- TGI (DMS 273 small cell lung): > 100 µM
- TGI (ACHN renal): > 100 µM
- TGI (SR leukemia): > 100 µM
- TGI (XF 498 CNS): > 100 µM
- TGI (SN12C renal): > 100 µM
- TGI (M19-MEL melanoma): > 100 µM
- TGI (KM20L2 colon): > 100 µM
- TGI (HOP-18 NSCLC): > 100 µM
- TGI (HCC-2998 colon): > 100 µM
- TGI (HL-60(TB) leukemia): > 100 µM
- TGI (OVCAR-4 ovarian): > 100 µM
- TGI (DLD-1 colon): > 100 µM
- TGI (SF-268 CNS): > 100 µM
- TGI (SF-539 CNS): > 100 µM
- TGI (SK-MEL-5 melanoma): > 100 µM

Compound: O=P(c1ccccc1)(c1ccccc1)C1CC=C(c2ccccc2)C2(CCCC2)C1 (configuration not stated)
- TGI (EKVX NSCLC): > 100 µM
- TGI (NCI-H23 lung): > 100 µM
- TGI (RPMI-8226 leukemia): 52.1 µM
- TGI (SNB-78 CNS): > 100 µM
- TGI (K-562 leukemia): > 100 µM
- TGI (SW-620 colon): > 100 µM
- TGI (UACC-257 melanoma): > 100 µM
- TGI (IGROV1 ovarian): > 100 µM
- TGI (OVCAR-3 ovarian): > 100 µM
- TGI (MALME-3M melanoma): > 100 µM
- TGI (CCRF-CEM leukemia): > 100 µM
- TGI (NCI-H226 lung): > 100 µM
- TGI (LOX IMVI melanoma): > 100 µM
- TGI (HCT-116 colon): > 100 µM
- TGI (KM12 colon): > 100 µM
- TGI (SNB-19 CNS): > 100 µM
- TGI (HOP-92 NSCLC): 67.5 µM
- TGI (HT29 colon): > 100 µM
- TGI (SK-MEL-2 melanoma): > 100 µM
- TGI (LXFL 529 NSCLC): > 100 µM
- TGI (MOLT-4 leukemia): 53.1 µM
- TGI (A549 NSCLC): > 100 µM
- TGI (SF-295 CNS): > 100 µM
- TGI (786-0 renal): > 100 µM
- TGI (SK-MEL-28 melanoma): > 100 µM
- TGI (SK-OV-3 ovarian): > 100 µM
- TGI (RXF 393 renal): > 100 µM
- TGI (OVCAR-5 ovarian): > 100 µM
- TGI (DMS 114 small cell lung): > 100 µM
- TGI (HCT-15 colon): > 100 µM
- TGI (SNB-75 CNS): > 100 µM
- TGI (COLO 205 colon): 56.7 µM
- TGI (TK-10 renal): > 100 µM
- TGI (U251 CNS): > 100 µM
- TGI (OVCAR-8 ovarian): > 100 µM
- TGI (UO-31 renal): 75.3 µM
- TGI (RXF-631 renal): > 100 µM
- TGI (UACC-62 melanoma): > 100 µM
- TGI (M14 melanoma): > 100 µM
- TGI (A498 renal): > 100 µM
- TGI (DMS 273 small cell lung): > 100 µM
- TGI (CAKI-1 renal): > 100 µM
- TGI (NCI-H460 lung): > 100 µM
- TGI (XF 498 CNS): > 100 µM
- TGI (SN12C renal): > 100 µM
- TGI (M19-MEL melanoma): > 100 µM
- TGI (KM20L2 colon): > 100 µM
- TGI (HOP-18 NSCLC): 76.9 µM
- TGI (HL-60(TB) leukemia): 50.7 µM
- TGI (OVCAR-4 ovarian): > 100 µM
- TGI (DLD-1 colon): > 100 µM
- TGI (SF-268 CNS): > 100 µM
- TGI (SF-539 CNS): > 100 µM
- TGI (SK-MEL-5 melanoma): > 100 µM
